# From patent US8410178B2, “CIS 3,4-dihydroxy-2-(3-methylbutanoyl)-5-(3-methylbutyl)-4-(4-methylpentanoyl)cyclopent-2-en-1-derivatives, substantially enantiomerically pure compositions and methods” (KinDex Therapeutics, LLC, priority 2010, dated 2013)
# Legend:
# [1] = target: T1, PPARγ (Homo sapiens, UniProt P37231); experiment: PPARγ luciferase reporter assay; format: cell-based
# T1 sequence (P37231 1-505): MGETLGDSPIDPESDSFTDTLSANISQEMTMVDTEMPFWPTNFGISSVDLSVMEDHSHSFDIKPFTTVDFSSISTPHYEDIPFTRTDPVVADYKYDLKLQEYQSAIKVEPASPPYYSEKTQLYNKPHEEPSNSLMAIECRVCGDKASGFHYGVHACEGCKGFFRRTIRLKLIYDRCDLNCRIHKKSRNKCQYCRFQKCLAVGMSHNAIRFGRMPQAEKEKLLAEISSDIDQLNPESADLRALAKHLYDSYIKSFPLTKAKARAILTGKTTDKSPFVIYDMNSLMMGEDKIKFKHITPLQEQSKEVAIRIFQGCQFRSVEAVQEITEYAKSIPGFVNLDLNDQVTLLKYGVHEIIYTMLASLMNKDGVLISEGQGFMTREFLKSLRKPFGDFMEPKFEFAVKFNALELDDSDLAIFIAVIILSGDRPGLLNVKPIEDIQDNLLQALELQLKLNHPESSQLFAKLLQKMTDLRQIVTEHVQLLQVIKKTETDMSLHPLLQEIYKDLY
# Procedure: (§1) The functional effect of (+)-KDT501 on PPARα, PPARδ, and PPARγ activity was evaluated using a PPAR reporter assay (INDIGO Biosciences, PA). This assay utilizes non-human mammalian cells engineered to provide constitutive high level expression of PPARα, PPARδ, or PPARγ and containing a luciferase report gene specific to the appropriate PPAR. Following activation by agonist binding, PPAR induces expression of the luciferase reporter gene. Luciferase activity therefore provides a surrogate for measuring PPAR activity in agonist-treated cells.
# (§2) Reporter cells were plated on a 96-well plate at 100 μL per well, and 100 μL of (+)-KDT501 at various final concentrations (25, 12.5, 6.25, 3.125, 1.56 and 0.78 μM) was added to each well. […] 0.1% DMSO was also used as a negative control for each assay. Plates are incubated for 20 hours in a humidified incubator at 37° C. and 5% CO2. After incubation, cell medium was discarded and the cells were treated with 100 μL of luciferase detection reagent for 15 minutes. Plates were analyzed using a luminometer (Victor2, Perkin Elmer). Average relative light unit (RLU) and standard deviation were analyzed using GraphPad Prism.
# The PPAR activity assays were repeated as described above using both (+)-KDT501(12.5, 6.25, 3.125, 1.56, and 0.78 μM) and (−)-KDT501 (25, 12.5, 6.25, 3.125, 1.56, and 0.78 μM).
# [2] = target: T2, PPARα (Homo sapiens, UniProt Q07869); experiment: PPARα luciferase reporter assay; format: cell-based; conditions: reporter cells, 20 hours
# T2 sequence (Q07869 1-468): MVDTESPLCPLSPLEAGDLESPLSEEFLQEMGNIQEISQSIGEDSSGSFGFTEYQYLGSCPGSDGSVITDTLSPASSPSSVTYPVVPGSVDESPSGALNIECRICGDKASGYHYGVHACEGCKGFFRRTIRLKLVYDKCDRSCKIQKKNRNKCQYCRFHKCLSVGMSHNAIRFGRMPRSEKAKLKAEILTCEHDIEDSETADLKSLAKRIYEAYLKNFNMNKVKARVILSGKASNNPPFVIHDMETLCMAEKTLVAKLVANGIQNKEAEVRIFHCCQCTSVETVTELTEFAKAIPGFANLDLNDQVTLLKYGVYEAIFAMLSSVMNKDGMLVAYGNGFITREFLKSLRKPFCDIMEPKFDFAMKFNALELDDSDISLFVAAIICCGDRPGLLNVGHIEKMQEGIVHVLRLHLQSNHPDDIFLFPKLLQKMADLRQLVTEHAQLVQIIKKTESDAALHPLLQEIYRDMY
# Procedure: as §1, §2
# [3] = target: Human DAPK1 (Homo sapiens, UniProt P53355); experiment: DAPK1 activity, cell free kinase assay; format: biochemical
# Human DAPK1, sequence (P53355 whole entry): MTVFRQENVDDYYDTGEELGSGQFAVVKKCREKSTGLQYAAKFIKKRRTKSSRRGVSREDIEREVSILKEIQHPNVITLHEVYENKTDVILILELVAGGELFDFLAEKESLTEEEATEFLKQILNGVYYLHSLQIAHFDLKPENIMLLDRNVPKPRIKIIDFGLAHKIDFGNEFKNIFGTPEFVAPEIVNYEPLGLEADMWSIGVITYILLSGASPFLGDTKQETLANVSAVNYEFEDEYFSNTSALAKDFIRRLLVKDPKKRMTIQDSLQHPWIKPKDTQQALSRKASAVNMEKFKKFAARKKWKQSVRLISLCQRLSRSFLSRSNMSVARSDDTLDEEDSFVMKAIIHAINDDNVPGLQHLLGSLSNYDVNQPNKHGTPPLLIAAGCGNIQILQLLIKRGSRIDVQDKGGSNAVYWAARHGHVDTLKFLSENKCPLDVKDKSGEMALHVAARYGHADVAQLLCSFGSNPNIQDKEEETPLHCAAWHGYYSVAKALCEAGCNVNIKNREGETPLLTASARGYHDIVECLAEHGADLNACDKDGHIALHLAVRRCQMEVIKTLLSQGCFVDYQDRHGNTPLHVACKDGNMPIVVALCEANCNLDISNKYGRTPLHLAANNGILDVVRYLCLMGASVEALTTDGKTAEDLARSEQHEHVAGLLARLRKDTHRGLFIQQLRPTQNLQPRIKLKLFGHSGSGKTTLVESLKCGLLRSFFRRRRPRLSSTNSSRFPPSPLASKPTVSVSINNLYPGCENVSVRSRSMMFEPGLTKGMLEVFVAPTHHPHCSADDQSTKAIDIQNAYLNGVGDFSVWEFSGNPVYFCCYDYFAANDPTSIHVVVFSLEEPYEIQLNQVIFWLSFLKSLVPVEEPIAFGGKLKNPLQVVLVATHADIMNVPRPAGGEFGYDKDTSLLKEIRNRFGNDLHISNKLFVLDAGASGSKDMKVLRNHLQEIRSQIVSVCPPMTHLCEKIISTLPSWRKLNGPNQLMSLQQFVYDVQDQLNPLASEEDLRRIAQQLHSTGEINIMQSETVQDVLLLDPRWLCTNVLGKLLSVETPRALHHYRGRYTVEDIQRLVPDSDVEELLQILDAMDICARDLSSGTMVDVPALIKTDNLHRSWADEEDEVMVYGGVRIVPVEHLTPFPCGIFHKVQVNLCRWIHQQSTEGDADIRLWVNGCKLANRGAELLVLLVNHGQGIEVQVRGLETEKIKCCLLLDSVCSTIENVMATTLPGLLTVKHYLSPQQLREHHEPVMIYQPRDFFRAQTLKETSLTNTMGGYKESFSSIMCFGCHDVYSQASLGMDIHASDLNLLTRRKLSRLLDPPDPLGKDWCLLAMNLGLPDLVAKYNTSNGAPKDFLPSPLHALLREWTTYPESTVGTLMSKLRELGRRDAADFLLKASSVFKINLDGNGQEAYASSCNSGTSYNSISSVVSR
# Procedure: The effect of (+)-KDT501 and (−)-KDT501 on death-associated protein kinase 1 (DAPK1) activity was evaluated.
# Human DAPK1 was incubated with 8 mM MOPS, pH 7.0, 0.2 mM EDTA, 250 μM ZIP peptide substrate ([…]), 10 mM MgOAc, and [γ-^33P-ATP] (specific activity approximately 500 cpm/pmol, concentration as required). (+)-KDT501 or (−)-KDT501 at varying concentrations (100, 30, 10, 1, 0.3, 0.1, 0.03, 0.01 μM) were added to the reaction mixture. The reaction was initiated by addition of the MgATP mix. After incubation for 40 minutes at room temperature, the reaction was stopped by addition of 3% phosphoric acid solution. 10 μL of reaction mixture was spotted onto a P30 filtermat, washed three times for five minutes in 75 mM phosphoric acid and once in methanol prior, then dried and subjected to scintillation counting.
# [4] = system: diet induced obese (DIO) mice; experiment: Glucose, insulin, HbA1C and fat mass in high fat diet-induced obesity (DIO) mouse model; format: in vivo
# Procedure: 14 week-old male mice were randomized and divided into seven dosing groups with 16 animals in each group: 1) vehicle only (0.5% methylcellulose (w/v), 0.2% Tween 80 (w/v); negative control), 2) (+)-KDT501 25 mg/kg, 3) (+)-KDT501 50 mg/kg, 4) (+)-KDT501 100 mg/kg, 5) (+)-KDT501 200 mg/kg, 6) metformin 200 mg/kg (positive control), and 7) pioglitazone 30 mg/kg (positive control). Drugs were administered orally twice a day for 30 days.
# Animals were weighed at randomization and once per week thereafter, with administration dosages calculated based on the most recent body weight measurements. The mice were maintained on a high fat diet (40% Kcal) (TD95217; prepared by Covance Laboratories, Greenfield, Ind.). Body composition was tested by qNMR on days −5 and 28 after the start of treatment. […]. An oral glucose tolerance test (OGTT) was performed on day 30 after the start of treatment. Mice underwent an overnight fast prior to OGTT, and tail bleeds for glucose and insulin were performed pre-glucose bolus and at 15, 30, 60, 90, and 120 minutes post-glucose bolus. The glucose bolus was 2 g dextrose/kg of body weight. OGTT results were evaluated by area under the curve (AUC) measurements and Dunnett's test.
structure (smiles),measurement,setting,value
"CC(C)CCC(=O)[C@@]1(O)C(O)=C(C(=O)CC(C)C)C(=O)[C@@H]1CCC(C)C.[K] [(+)-KDT501, (+)-(4S,5R)-3,4-dihydroxy-2-(3-methylbutanoyl)-5-(3-methylbutyl)-4-(4-methylpentanoyl)cyclopent-2-en-1-one potassium salt]",Fold difference in PPARγ reporter activity,[1]; (+)-KDT501 versus (−)-KDT501 at 3.13 μM,3.9
same,Fold difference in PPARγ reporter activity,[1]; (+)-KDT501 versus (−)-KDT501 at 6.25 μM,6.7
same,Fold difference in PPARγ reporter activity,[1]; (+)-KDT501 versus (−)-KDT501 at 12.5 μM,6.8
same,Fold difference in PPARγ reporter activity,[1]; (+)-KDT501 versus (−)-KDT501 at 25 μM,3.2
same,PPARγ reporter activity (RLU),[1]; concentration of test compound 3.13 μM,2122 RLU
same,PPARγ reporter activity (RLU),[1]; concentration of test compound 6.25 μM,6536 RLU
same,PPARγ reporter activity (RLU),[1]; concentration of test compound 12.5 μM,16451 RLU
same,PPARγ reporter activity (RLU),[1]; concentration of test compound 25 μM,13419 RLU
same,PPARγ activity,"[1]; reporter cells, 20 hours",increased PPARγ activity in a statistically significant manner
same,PPARα activity,[2],little or no effect
same,fold difference in DAPK1 IC50 between the two compounds,[3]; (+)-KDT501 versus (−)-KDT501,~15 fold
same,IC50,[3]; cell free assay,2650 nM
same,insulin levels from the OGTT,"[4]; 200 mg/kg orally twice a day, day 30",significant decrease
same,blood glucose levels from the OGTT,"[4]; 100 or 200 mg/kg orally twice a day, day 30",significant decrease
same,fat mass,"[4]; 100 or 200 mg/kg orally twice a day, qNMR day 28",significant difference in fat mass versus negative control mice
same,HbA1C,"[4]; orally twice a day, day 29, dose not specified",trend towards HbA1C inhibition
